In patent US20220331303A1, “USE OF AN OREXIN 2 RECEPTOR AGONIST FOR THE TREATMENT OF EXCESSIVE SLEEPINESS” (Takeda Pharmaceutical Company Limited, priority 2019, published 2022):

Test system: sleep-deprived healthy volunteers
Assay: Polysomnography (PSG) of recovery sleep after sleep deprivation in healthy volunteers
Type: in vivo, human
Method: Exploratory objectives in sleep-deprived healthy volunteers were as follows: • 1. To compare the effects of Compound A (LD and HD) and modafinil (300 mg) on promoting wakefulness as measured by MWT. • 2. To determine PK-PD relationships for selected PD measures. • 3. To evaluate PK-BP relationships in BP change after Compound A administration. • 4. To compare various polysomnography (PSG) parameters between Day −1 (predose) and Day 2 (recovery sleep). • 5. To determine whether there is any difference in the PSG parameters on Day 2 (recovery sleep) between Compound A and placebo or modafinil. • 6. To evaluate the continuous electroencephalogram (EEG) obtained during the MWTs for power spectra changes for Compound A (LD and HD) versus placebo, Compound A (LD and HD) versus modafinil, and modafinil versus placebo.
During the day before dosing on Day 1, participants were administered the KSS at scheduled timepoints. A practice MWT session was performed on Day 1 treatment period 1 (only once during the entire study) to familiarize subjects with the procedures. Study drug was administered in the clinic in the evening on Day 1 of each treatment period. Subjects underwent the MWT and KSS at specified timepoints after the start of the infusion. Subjects were required to stay awake between the MWT tests. Following completion of the IV infusion on Day 2, subjects underwent an additional MWT test. When the final MWT test and cognitive testing were completed, subjects were allowed to sleep (recovery sleep) for approximately 6 hours. PSG recording was collected during this time. Subjects were discharged from the unit after completion on Day 2 with continuing actigraphy upon discharge (to begin on Day −6 before the next treatment period). The interval between each subsequent treatment period was at least 7 days to ensure that the subject's circadian rhythm had returned to a normal cycle. Subject's vital signs, including BP, were monitored during the dosing and testing period. Blood samples for determination of Compound A plasma concentrations were collected at specified timepoints on Days 1 and 2 of each treatment period. Subjects completed the Columbia-Suicide Severity Rating Scale (C-SSRS) during screening, before study drug administration, and before discharge on Day 2 of each treatment period.
The PSGs assess recovery sleep during the day after the end of the sleep deprivation period. There were no corrections for multiple comparisons. […]

[1] = Compound A 112 mg, recovery sleep
[2] = HD: Compound A 112 mg, recovery sleep
[3] = LD: Compound A 44 mg, recovery sleep

COC(=O)N1CCC[C@H](NS(C)(=O)=O)[C@@H]1CO[C@H]1CC[C@@H](c2ccccc2)CC1 [Compound A, methyl (2R,3S)-3-((methylsulfonyl)amino)-2-(((cis-4-phenylcyclohexyl)oxy)methyl)piperidine-1-carboxylate]
PSG N2 latency, LS mean difference vs placebo (Compound A 44 mg, recovery sleep): -2.74 min
PSG REM latency, LS mean difference vs placebo [1]: 29.64 min
PSG stage REM %, LS mean difference vs placebo [1]: −5.66%
PSG stage REM duration, LS mean difference vs placebo [1]: -19.73 min
Stage N3 Duration LS Mean (HD: Compound A 112 mg): 87.23 min
Stage N3 Duration LS Mean Difference vs placebo Estimate (HD: Compound A 112 mg): 5.85 min
Stage REM % LS Mean (HD: Compound A 112 mg): 15.72%
Stage REM % LS Mean Difference vs placebo Estimate (HD: Compound A 112 mg): −5.66%
Stage REM Duration LS Mean (HD: Compound A 112 mg): 46.83 min
Stage REM Duration LS Mean Difference vs placebo Estimate (HD: Compound A 112 mg): -19.73 min
Stage Wake % LS Mean (HD: Compound A 112 mg): 11.14%
Stage Wake % LS Mean Difference vs placebo Estimate (HD: Compound A 112 mg): 0.84%
Stage Wake Duration LS Mean (HD: Compound A 112 mg): 36.46 min
Stage Wake Duration LS Mean Difference vs placebo Estimate (HD: Compound A 112 mg): 0.93 min
Total Arousal Index LS Mean (HD: Compound A 112 mg): 9.18
Total Arousal Index LS Mean Difference vs placebo Estimate (HD: Compound A 112 mg): −0.81
Total Arousal LS Mean (HD: Compound A 112 mg): 46.54
Total Arousal LS Mean Difference vs placebo Estimate (HD: Compound A 112 mg): −3.87
Total Leg Movements LS Mean (HD: Compound A 112 mg): 16.94
Total Leg Movements LS Mean Difference vs placebo Estimate (HD: Compound A 112 mg): −2.01
Total Leg Movements N1 LS Mean (HD: Compound A 112 mg): 1.41
Total Leg Movements N1 LS Mean Difference vs placebo Estimate (HD: Compound A 112 mg): 0.15
Total Leg Movements N2 LS Mean (HD: Compound A 112 mg): 7.59
Total Leg Movements N2 LS Mean Difference vs placebo Estimate (HD: Compound A 112 mg): −0.95
Total Leg Movements N3 LS Mean (HD: Compound A 112 mg): 2.72
Total Leg Movements N3 LS Mean Difference vs placebo Estimate (HD: Compound A 112 mg): 1.09
Total Leg Movements REM LS Mean (HD: Compound A 112 mg): 4.18
Total Leg Movements REM LS Mean Difference vs placebo Estimate (HD: Compound A 112 mg): −1.57
Total Leg Movements with Awakening LS Mean (HD: Compound A 112 mg): 0.84
Total Leg Movements with Awakening LS Mean Difference vs placebo Estimate (HD: Compound A 112 mg): −0.91
Total Leg Movements with Microarous LS Mean (HD: Compound A 112 mg): 2.14
Total Leg Movements with Microarous LS Mean Difference vs placebo Estimate (HD: Compound A 112 mg): 0.13
Total Leg Movements with Resp Event LS Mean (HD: Compound A 112 mg): 0.06
Total Leg Movements with Resp Event LS Mean Difference vs placebo Estimate (HD: Compound A 112 mg): 0.01
Total Leg Movements without Arousal LS Mean (HD: Compound A 112 mg): 14.77
Total Leg Movements without Arousal LS Mean Difference vs placebo Estimate (HD: Compound A 112 mg): −2.15
Total Recording Time LS Mean (HD: Compound A 112 mg): 351.06 min
Total Recording Time LS Mean Difference vs placebo Estimate (HD: Compound A 112 mg): -5.85 min
Total Sleep Time LS Mean (HD: Compound A 112 mg): 298.98 min
Total Sleep Time LS Mean Difference vs Placebo Estimate (HD: Compound A 112 mg): -10.49 min
Wake After Persistent Sleep LS Mean (HD: Compound A 112 mg): 35.95 min
Wake After Persistent Sleep LS Mean Difference vs placebo Estimate (HD: Compound A 112 mg): 1.33 min
Wake After Sleep Onset LS Mean (HD: Compound A 112 mg): 36.46 min
Wake After Sleep Onset LS Mean Difference vs placebo Estimate (HD: Compound A 112 mg): 0.93 min
PSG Awakenings LS Mean [2]: 5.71
PSG Awakenings LS Mean Difference vs Placebo Estimate [2]: 1.22
PSG N1 Latency LS Mean [2]: 2.89 min
PSG N1 Latency LS Mean Difference vs Placebo Estimate [2]: -2.47 min
PSG N2 Latency LS Mean [2]: 4.72 min
PSG N2 Latency LS Mean Difference vs Placebo Estimate [2]: -1.93 min
PSG N3 Latency LS Mean [2]: 15.83 min
PSG N3 Latency LS Mean Difference vs Placebo Estimate [2]: -11.45 min
PSG Per. Slp LS Mean [2]: 4.50 min
PSG Per. Slp LS Mean Difference vs Placebo Estimate [2]: -2.37 min
PSG REM Latency LS Mean [2]: 84.57 min
PSG REM Latency LS Mean Difference vs Placebo Estimate [2]: 29.64 min
PSG Sleep Efficiency LS Mean [2]: 84.65%
PSG Sleep Efficiency LS Mean Difference vs Placebo Estimate [2]: −2.06%
PSG Sleep Onset LS Mean [2]: 2.94 min
PSG Sleep Onset LS Mean Difference vs Placebo Estimate [2]: -1.04 min
PSG Spontaneous Arousal Index LS Mean [2]: 8.26
PSG Spontaneous Arousal Index LS Mean Difference vs Placebo Estimate [2]: −0.67
PSG Spontaneous Arousal LS Mean [2]: 41.46
PSG Spontaneous Arousal LS Mean Difference vs Placebo Estimate [2]: −3.61
PSG Stage N1 % LS Mean [2]: 6.08%
PSG Stage N1 % LS Mean Difference vs Placebo Estimate [2]: 0.00%
PSG Stage N1 Duration LS Mean [2]: 18.05 min
PSG Stage N1 Duration LS Mean Difference vs Placebo Estimate [2]: -0.35 min
PSG Stage N2 % LS Mean [2]: 48.93%
PSG Stage N2 % LS Mean Difference vs Placebo Estimate [2]: 2.22%
PSG Stage N2 Duration LS Mean [2]: 147.83 min
PSG Stage N2 Duration LS Mean Difference vs Placebo Estimate [2]: 3.76 min
PSG Stage N3 % LS Mean [2]: 29.36%
PSG Stage N3 % LS Mean Difference vs Placebo Estimate [2]: 3.53%
Stage N3 Duration LS Mean (LD: Compound A 44 mg): 81.05 min
Stage N3 Duration LS Mean Difference vs placebo Estimate (LD: Compound A 44 mg): -0.34 min
Stage REM % LS Mean (LD: Compound A 44 mg): 20.70%
Stage REM % LS Mean Difference vs placebo Estimate (LD: Compound A 44 mg): −0.68%
Stage REM Duration LS Mean (LD: Compound A 44 mg): 60.76 min
Stage REM Duration LS Mean Difference vs placebo Estimate (LD: Compound A 44 mg): -5.80 min
Stage Wake % LS Mean (LD: Compound A 44 mg): 10.65%
Stage Wake % LS Mean Difference vs placebo Estimate (LD: Compound A 44 mg): 0.35%
Stage Wake Duration LS Mean (LD: Compound A 44 mg): 35.55 min
Stage Wake Duration LS Mean Difference vs placebo Estimate (LD: Compound A 44 mg): 0.02 min
Total Arousal Index LS Mean (LD: Compound A 44 mg): 10.07
Total Arousal Index LS Mean Difference vs placebo Estimate (LD: Compound A 44 mg): 0.08
Total Arousal LS Mean (LD: Compound A 44 mg): 47.56
Total Arousal LS Mean Difference vs placebo Estimate (LD: Compound A 44 mg): −2.85
Total Leg Movements LS Mean (LD: Compound A 44 mg): 12.59
Total Leg Movements LS Mean Difference vs placebo Estimate (LD: Compound A 44 mg): −6.35
Total Leg Movements N1 LS Mean (LD: Compound A 44 mg): 1.60
Total Leg Movements N1 LS Mean Difference vs placebo Estimate (LD: Compound A 44 mg): 0.34
Total Leg Movements N2 LS Mean (LD: Compound A 44 mg): 6.04
Total Leg Movements N2 LS Mean Difference vs placebo Estimate (LD: Compound A 44 mg): −2.51
Total Leg Movements N3 LS Mean (LD: Compound A 44 mg): 0.65
Total Leg Movements N3 LS Mean Difference vs placebo Estimate (LD: Compound A 44 mg): −0.97
Total Leg Movements REM LS Mean (LD: Compound A 44 mg): 3.44
Total Leg Movements REM LS Mean Difference vs placebo Estimate (LD: Compound A 44 mg): −2.31
Total Leg Movements with Awakening LS Mean (LD: Compound A 44 mg): 0.68
Total Leg Movements with Awakening LS Mean Difference vs placebo Estimate (LD: Compound A 44 mg): −1.07
Total Leg Movements with Microarous LS Mean (LD: Compound A 44 mg): 2.35
Total Leg Movements with Microarous LS Mean Difference vs placebo Estimate (LD: Compound A 44 mg): 0.34
Total Leg Movements with Resp Event LS Mean (LD: Compound A 44 mg): 0.16
Total Leg Movements with Resp Event LS Mean Difference vs placebo Estimate (LD: Compound A 44 mg): 0.11
Total Leg Movements without Arousal LS Mean (LD: Compound A 44 mg): 10.21
Total Leg Movements without Arousal LS Mean Difference vs placebo Estimate (LD: Compound A 44 mg): −6.71
Total Recording Time LS Mean (LD: Compound A 44 mg): 342.50 min
Total Recording Time LS Mean Difference vs placebo Estimate (LD: Compound A 44 mg): -14.40 min
Total Sleep Time LS Mean (LD: Compound A 44 mg): 291.34 min
Total Sleep Time LS Mean Difference vs Placebo Estimate (LD: Compound A 44 mg): -18.13 min
Wake After Persistent Sleep LS Mean (LD: Compound A 44 mg): 33.78 min
Wake After Persistent Sleep LS Mean Difference vs placebo Estimate (LD: Compound A 44 mg): -0.85 min
Wake After Sleep Onset LS Mean (LD: Compound A 44 mg): 35.55 min
Wake After Sleep Onset LS Mean Difference vs placebo Estimate (LD: Compound A 44 mg): 0.02 min
PSG Awakenings LS Mean [3]: 4.74
PSG Awakenings LS Mean Difference vs Placebo Estimate [3]: 0.25
PSG N1 Latency LS Mean [3]: 3.60 min
PSG N1 Latency LS Mean Difference vs Placebo Estimate [3]: -1.76 min
PSG N2 Latency LS Mean [3]: 3.91 min
PSG N2 Latency LS Mean Difference vs Placebo Estimate [3]: -2.74 min
PSG N3 Latency LS Mean [3]: 21.94 min
PSG N3 Latency LS Mean Difference vs Placebo Estimate [3]: -5.33 min
PSG Per. Slp LS Mean [3]: 5.96 min
PSG Per. Slp LS Mean Difference vs Placebo Estimate [3]: -0.91 min
PSG REM Latency LS Mean [3]: 75.10 min
PSG REM Latency LS Mean Difference vs Placebo Estimate [3]: 20.16 min
PSG Sleep Efficiency LS Mean [3]: 84.95%
PSG Sleep Efficiency LS Mean Difference vs Placebo Estimate [3]: −1.77%
PSG Sleep Onset LS Mean [3]: 2.71 min
PSG Sleep Onset LS Mean Difference vs Placebo Estimate [3]: -1.28 min
PSG Spontaneous Arousal Index LS Mean [3]: 8.58
PSG Spontaneous Arousal Index LS Mean Difference vs Placebo Estimate [3]: −0.36
PSG Spontaneous Arousal LS Mean [3]: 40.21
PSG Spontaneous Arousal LS Mean Difference vs Placebo Estimate [3]: −4.86
PSG Stage N1 % LS Mean [3]: 5.69%
PSG Stage N1 % LS Mean Difference vs Placebo Estimate [3]: −0.39%
PSG Stage N1 Duration LS Mean [3]: 16.29 min
PSG Stage N1 Duration LS Mean Difference vs Placebo Estimate [3]: -2.12 min
PSG Stage N2 % LS Mean [3]: 46.04%
PSG Stage N2 % LS Mean Difference vs Placebo Estimate [3]: −0.66%
PSG Stage N2 Duration LS Mean [3]: 134.21 min
PSG Stage N2 Duration LS Mean Difference vs Placebo Estimate [3]: -9.86 min
PSG Stage N3 % LS Mean [3]: 27.65%
PSG Stage N3 % LS Mean Difference vs Placebo Estimate [3]: 1.82%
PSG sleep efficiency, arousals, and total sleep compared with placebo (both Compound A groups (44 and 112 mg), recovery sleep): not different from placebo
